Where a name gives a salt, the structure may show the parent alone.
Key:
Assay type in all cases: cell-based
human adipocyte cells [1] = experiment: Cytotoxicity assay: metabolic activity (resazurin conversion) of human adipocytes
Method: (§1) HWP were obtained in passage two and differentiated in vitro to mature adipocytes. Briefly, cells were initially cultured in preadipocyte growth medium at 37° C. and 5% CO2 to 70-80% confluency. Then, cells were seeded at 40,000 cells/ml into 96-well flat bottom tissue culture plates and incubated overnight to allow attachment. Differentiation was initiated by changing the medium to preadipopcyte differentiation medium for an additional 72 hrs. After differentiation was induced, the medium was replaced by adipocyte nutrition medium that was refreshed every 2-3 days over a period of 14 days until termination of differentiation. Differentiation status was checked via nile red staining of control cells.
The test items 1 to 8 were prepared according to Table 1 to yield respective stock solutions. Said stock solutions were further diluted in assay media to obtain the double concentrated working solutions, which were subsequently diluted 1:2 in the final assay. […] Deoxycholate Na was selected as “reference compound”.
(§2) For the cytotoxicity assays in this study pre-adipocytes were seeded at 40,000 cells/ml into a 96-well microtiter flat bottom plate. The test items were prepared in separate plates starting with the double concentrated maximal test concentration followed by a 1:2 serial dilution (Chloroquine and Fluoxetine 1:3) and then added to the cells. The test items were tested at 6 replicates/concentration. Each plate included negative controls (media plus solvent, 6 replicates), a drug interference control (all concentrations, duplicates), a background control (14 replicates), a positive (=cytotoxic) control (6 replicates doxorubicin, 1 μM final) and a positive control for maximal LDH-release (2 replicates, 2% Triton-x 100 final).
(§3) Relative cell viability was determined after 48 hrs exposure based on metabolic activity (i.e. resazurin conversion). Using a Victor^3 1420 Multilabel Counter, the resazurin conversion to the fluorescent resorufin by metabolically active cells was recorded at 560Ex/590Em. Membrane integrity was measured after 6 hrs and 48 hrs and the enzymatic activity of released LDH in the cell supernatant after 30 min of incubation at 492 nmabsorption/690 nmreference by a spectrophotometer. The volume withdrawn from the cultures for the LDH-assay was not replaced to keep cells in a less disturbed environment. The assay was conducted in a multiplexed format.
In order to derive meaningful IC50 values from the primary data, the entire biological window of activity ranging from 0% to 100% viability should be covered and the resolution has to be sufficient. To improve data quality, the serial dilution factor used in previous experiments was reduced to a 1:2 and 1:3 dilution. […] IC50 (half maximal inhibitory concentration, calculated via Sigma Plot 10) values were determined for each test substance 1 to 8.
(§4) The effects on cytotoxicity in human adipocyte cells of a further 9 compounds were tested. The experimental set-up was identical to the one in example 1.

human adipocyte cells [2] = experiment: Membrane integrity: LDH release from human adipocytes (LDH assay); details: for IC50: read-out: IC50 48 hrs LDH; for Rel. max. LDH release [%] 48 hrs: Example 1, 48 hrs, relative to Triton-x 100 maximal LDH release
Method: as §1, §2, §3
For the dose-response relationship, absolute absorption (OD treated wells−background) was plotted against the test item concentrations representing LDH leakage from the cells. For a better estimation of the test items' potential influencing the membrane integrity, relative, maximal LDH release in percent (see Table 2) was also calculated according to the following formula: […]
as §4

Human white adipocytes = experiment: Apoptosis/necrosis detection, Annexin V-FITC/PI flow cytometry; details: for Early Apoptosis [A-V*/PI*] / Necrosis/ Late Apoptosis [A-V*/PI*] / Normal [A-V*/PI]: 500 μM
Source text: The apoptotic program is characterized by certain morphologic features. Loss of plasma membrane asymmetry is a well established indicator for apoptotic cells. In apoptotic cells, the membrane phospholipid phosphatidylserine (PS) is translocated from the inner to the outer leaflet of the plasma membrane, thereby exposing PS to the external environment. In general, this PS translocation is preceded by caspase activation. Annexin V labelled with FITC is a Ca^2+ dependent phospholipid-binding protein with high affinity for PS and binds to cells with externalized PS. Cells stained with Annexin V*FITC are therefore considered in an early apoptotic stage.
Staining with Annexin V-FITC is typically used in conjunction with a vital dye such as propidium iodide (PI) to allow discrimination between early apoptotic and necrotic cells. Necrotic dying cells are PI positive only. Cells that are viable are Annexin V and PI negative; cells that entered apoptosis are Annexin V positive and PI negative and cells that are in post apoptotic and/or necrotic phase are both Annexin V and PI positive.
Human white adipocytes that had been differentiated in vitro from pre-adipocytes as describe above were used. Measurements were performed after 5 hrs to catch early apoptotic/necrotic events and after 24 hrs and 48 hrs for later stages. Naringenin at 500 μM (reported to induce apoptosis in adipocytes) was used as positive control and media plus solvent was used as negative control. Each compound was tested in three different concentrations. […] Two more concentrations, one below and one above the IC50 were added.
Flow cytometry was performed with a dual laser FC500. After completion of the staining procedure, tubes were grouped into a FC500 carousel for semi-automated data acquisition. Cells were first acquired in “Setup” mode to tune the parameters FS, SS, FL1 and FL2. After completion of the setup, baseline compensation was switched on and cells were acquired. Cells were acquired without life-gate but using FS threshold to exclude debris. All cells were acquired using individually corrected settings.
After completion of data acquisition, analysis was done using the CXP software. If necessary, software-based post acquisition compensation was performed to fine-correct for fluorescence overlap not adjusted for during the acquisition phase. Quadrant markers were set based on the negative controls.

[3] = Homo sapiens, Adipocyte, read-out: IC50 48 hrs Resazurin, Example 2, 48 hrs
[4] = Homo sapiens, Adipocyte, Example 2, 48 hrs

CNCC[C@H](Oc1cccc2ccccc12)c1cccs1 [Duloxetine]
IC50 (human adipocyte cells [1]; Homo sapiens, Adipocyte, 48 h, read-out: IC50 48 hrs Resazurin): 42.9 µM | IC50 (human adipocyte cells [2]; Homo sapiens, Adipocyte, 48 h): ~31.9 µM

O=C1C[C@@H](c2ccc(O)cc2)Oc2cc(O)cc(O)c21 [Naringenin]
Early Apoptosis [A-V*/PI*] (Human white adipocytes; 5 hrs): 16 | Necrosis/ Late Apoptosis [A-V*/PI*] (Human white adipocytes; 5 hrs): 0.8 | Normal [A-V*/PI] (Human white adipocytes; 5 hrs): 83.2 | Early Apoptosis [A-V*/PI*] (Human white adipocytes; 24 hrs): 14.1 | Necrosis/ Late Apoptosis [A-V*/PI*] (Human white adipocytes; 24 hrs): 4.1 | Normal [A-V*/PI] (Human white adipocytes; 24 hrs): 81.8 | Early Apoptosis [A-V*/PI*] (Human white adipocytes; 48 hrs): 12.1 | Necrosis/ Late Apoptosis [A-V*/PI*] (Human white adipocytes; 48 hrs): 5.7 | Normal [A-V*/PI] (Human white adipocytes; 48 hrs): 81.2 | apoptosis/necrosis induction in human adipocytes (in words) (Human white adipocytes; 5, 24, 48 hrs, concentrations as in Table 4): small but clear increase in apoptotic/necrotic adipocytes over time

C[C@H](CCC(=O)[O-])[C@H]1CC[C@H]2[C@@H]3CC[C@@H]4C[C@H](O)CC[C@]4(C)[C@H]3C[C@H](O)[C@]12C.[Na+] [Test substance 8, Deoxycholate Na]
IC50 (human adipocyte cells [1]; read-out: IC50 48 hrs Resazurin, Example 2, 48 hrs, listed as Deoxycholate): ~616 µM | IC50 (human adipocyte cells [1]; read-out: IC50 48 hrs Resazurin, Example 2, 48 hrs, listed as deoxycholate): 616 µM | IC50 (human adipocyte cells [1]; read-out: IC50 (metabolic activity after 48 hrs), Example 1, 48 hrs exposure, resazurin): 446 µM | Rel. max. LDH release [%] 48 hrs (human adipocyte cells [2]): 98.0% | IC50 (human adipocyte cells [2]; Example 2, 48 hrs): ~379 µM

CN(C)CCC[C@@]1(c2ccc(F)cc2)OCc2cc(C#N)ccc21 [Test substance 3, Escitalopram oxalate]
IC50 (human adipocyte cells [1]; Homo sapiens, Adipocyte, read-out: IC50 (metabolic activity after 48 hrs), Example 1, 48 hrs exposure, resazurin): 491 µM | Rel. max. LDH release [%] 48 hrs (human adipocyte cells [2]): 88.0%

COc1ccccc1OCCNCC(O)COc1cccc2[nH]c3ccccc3c12 (stereo not shown) [Carvedilol]
IC50 (human adipocyte cells [1]; [3]): 28.4 µM | IC50 (human adipocyte cells [2]; [4]): ~22.2 µM

OCCN1CCN(CCCN2c3ccccc3Sc3ccc(Cl)cc32)CC1 [Perphenazine]
IC50 (human adipocyte cells [1]; [3]): 25 µM | IC50 (human adipocyte cells [2]; [4]): ~20.3 µM

CCN(CC)CCCC(C)Nc1ccnc2cc(Cl)ccc12 (stereo not shown) [Test substance 1, Chloroquine]
IC50 (human adipocyte cells [1]; Homo sapiens, Adipocyte, 48 h, read-out: IC50 (metabolic activity after 48 hrs)): 599 µM | Rel. max. LDH release [%] 48 hrs (human adipocyte cells [2]): 101.8%

— patent US20130143869A1, “USE OF A CATIONIC AMPHIPHILIC DRUG FOR THE PREPARATION OF A FORMULATION FOR THE REDUCTION OF SUBCUTANEOUS ADIPOSE TISSUE” (Merz Pharma GmbH & CO. KGaA, priority 2010, published 2013)
